Key:
[1] = tested on: DU-145 (prostate) cancer cell line; test: MTT cell viability assay, DU-145; type: cell-based, human; conditions: Homo sapiens, DU-145, 48 h; for activity at 10 µM: read-out: Cell growth %, DU-145, 10 µM, 48 h, MTT; for activity at 50 µM: read-out: Cell growth %, DU-145, 50 µM, 48 h, MTT
How it was run: (§1)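 MDA-MB-231, HTB-54 and DU-145 grown in RPMI 1640, HT-29 in McCoy's 5A (10% FBS). Output is % cell growth; IC50 determined; ≥3 experiments in quadruplicate.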

[2] = tested on: HT-29 (colon) cancer cell line; test: MTT cell viability assay, HT-29; type: cell-based; conditions: Homo sapiens, HT-29, 48 h, read-out: Cell growth %; for activity at 10 µM: HT-29, 10 µM; for activity at 50 µM: HT-29, 50 µM
How it was run: as §1

[3] = tested on: MDA-MB-231 (breast) cancer cell line; test: MTT cell viability assay, MDA-MB-231; type: cell-based, human; conditions: Homo sapiens, MDA-MB-231, 48 h; for activity at 10 µM: read-out: Cell growth %, MDA-MB-231, 10 µM, 48 h, MTT; for activity at 50 µM: read-out: Cell growth %, MDA-MB-231, 50 µM, 48 h, MTT
How it was run: as §1

[4] = DPPH radical scavenging assay; type: biochemical
How it was run: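 Acylselenoureas at 0.003 and 0.03 mg/mL (final dilutions from DMSO stock, via methanol) mixed with DPPH• prepared at 0.04 mg/mL in methanol. Absorbance decrease at 517 nm followed 0–120 min; % scavenging calculated relative to negative control, triplicates.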

[5] = tested on: HTB-54 (lung) cancer cell line; test: MTT cell viability assay, HTB-54; type: cell-based, human; conditions: for activity at 10 µM: read-out: Cell growth %, HTB-54, 10 µM, 48 h, MTT; for activity at 50 µM: read-out: Cell growth %, HTB-54, 50 µM, 48 h, MTT
[6] = tested on: MDA-MB-231, HT-29, HTB-54 and DU-145 cancer cell lines; test: MTT cell viability assay, statements over the panel of cancer cell lines; type: cell-based, human; conditions: in at least three of the four cancer cell lines tested
Experimental: (§2) Cell lines were purchased from the American Type Culture Collection (ATCC). Cell lines MDA-MB-231, HTB-54, DU-145, and BEAS-2B were cultured in RPMI 1640 medium (Gibco, Thermo Fisher Scientific, Gaithersburg, MD, USA) supplemented with 10% fetal bovine serum (FBS; Gibco), 100 units/mL penicillin, and […] streptomycin (Gibco). HT-29 cell line was grown in McCoy’s 5A (Gibco), 10% FBS, 100 units/mL penicillin, and 100 μg/mL streptomycin. Cells were maintained at 37 °C and 5% CO2. The culture medium was changed every three days.
(§3) The cell viability of each compound was measured by MTT colorimetric assay. Each compound was dissolved in DMSO at a concentration of 0.01 M. Each compound was tested at two different concentrations (10 and 50 µM) in MDA-MB-231 (breast), HTB-54 (lung), DU-145 (prostate), and HT-29 (colon) human cancer cell lines. Serial dilutions were prepared with supplemented culture medium. […] IC50 and selectivity indexes (SI) were determined.
(§4) Briefly, 1 × 10^4 tumor cells per well were grown in 96-well plates for 24 h. Then, these cells were incubated for 48 h with either DMSO (control) or a different concentration of each of the tested compounds. The cell viability was determined by adding 20 μL of MTT two hours and a half before the termination point. After this time, the culture medium was removed. The resulting formazan crystals were dissolved in 50 μL of DMSO, and the absorbance was measured at 570 nm. Results are expressed as % cell growth. The data were obtained from at least three independent experiments performed in quadruplicate.

DU-145 cells = test: Protective effects against H2O2-induced oxidative stress in DU-145 cells (MTT); type: cell-based, human; conditions: increase-fold of cell survival
Experimental: Cells were treated with the selected compounds and then oxidative damage to DU-145 cells was induced using different concentrations of H2O2 (200, 250 and 300 µM), and cell viability was assessed by the MTT method. Briefly, 2.5 × 10^4 DU-145 cells per well were added in 96-well plates. After 24 h of incubation, DMSO, 1.I, 2.I, 5.I, 7.II, 10.II, and ascorbic acid were added to each well at two different concentrations (0.0015 mg/mL and 0.0003 mg/mL) and incubated for 1 h. After that, H2O2 was added at the concentrations of 200, 250, and 300 µM, and the cells were incubated for 12 h to induce cell damage. MTT assay was used to measure cell viability. For each treatment, the mean cell viability was calculated from three independent experiments. The DMSO-treated controls were assigned with a cell viability value of 100% (Vcontrol). The results are expressed as a cell growth inhibition % caused by H2O2 and the increased fold of cell survival, as follows: • Cells without compounds, only treated with H2O2: (2) % Cell growth inhibition=Acontrol - Asample/Acontrol × 100
• Cells treated with compounds and H2O2:
(3) % Cell growth inhibition=Asample (compound) - Asample (compound+H2O2)/Acontrol × 100
(4) Increase-fold of cell survival=% cell growth inhibition (H2O2)/% cell growth inhibition (compound+ H2O2)
The standard error of the mean (SEM) was calculated in at least three independent experiments performed in quadruplicates.

[7] = tested on: non-malignant BEAS-2B lung cell line; test: MTT cell viability assay, BEAS-2B; type: cell-based; conditions: Homo sapiens, normal lung, 48 h
Experimental: as §2, §3, §4

Compound `CCCNC(=[Se])NC(=O)/C=C/c1ccccc1` [Compound 6.I, N-(propylcarbamoselenoyl)cinnamamide] has an activity at 10 µM [1] of 19.5 ± 2%, an activity at 50 µM [1] of 12.6 ± 1% and an activity at 10 µM [2] of 60.4 ± 9.7%. The activity at 50 µM [2] was 25.1 ± 5%, the activity at 10 µM [3] was 88.4 ± 16.3% and the activity at 50 µM [3] was 23.5 ± 12.9%. The inhibition ([4]; 0.003 mg/mL, 0 min) was 1.5 ± 0.5%, the inhibition ([4]; 0.003 mg/mL, 5 min) was 2 ± 0.8% and the inhibition ([4]; 0.003 mg/mL, 15 min) was 2.5 ± 0.8%. It also gave an inhibition ([4]; 0.003 mg/mL, 30 min) of 3.1 ± 0.6%, an inhibition ([4]; 0.003 mg/mL, 60 min) of 4.4 ± 0.6% and an inhibition ([4]; 0.003 mg/mL, 90 min) of 5.6 ± 0.7%. For the same compound, the inhibition ([4]; 0.003 mg/mL, 120 min) was 6.6 ± 0.8%, the inhibition ([4]; 0.03 mg/mL, 0 min) was 2.3 ± 1% and the inhibition ([4]; 0.03 mg/mL, 5 min) was 10.1 ± 1.1%. The inhibition ([4]; 0.03 mg/mL, 15 min) was 15.4 ± 1.3%, the inhibition ([4]; 0.03 mg/mL, 30 min) was 21.8 ± 1.1% and the inhibition ([4]; 0.03 mg/mL, 60 min) was 35.1 ± 1.2%. The inhibition ([4]; 0.03 mg/mL, 90 min) was 50.2 ± 0.8%, the inhibition ([4]; 0.03 mg/mL, 120 min) was 66.4 ± 0.2% and the melting point was 125 to 126 °C. For the same compound, the activity at 10 µM ([5]; Homo sapiens, HTB-54, 48 h) was 84.6 ± 5.9% and the activity at 50 µM ([5]; Homo sapiens, HTB-54, 48 h) was 36.2 ± 5.7%.
In the case of `C#CCNC(=[Se])NC(=O)/C=C/c1ccco1` [Compound 3.III, (E)-3-(furan-2-yl)-N-(prop-2-in-1-ylcarbamoselenoyl)acrylamide], the activity at 10 µM [1] is reported as 86.5 ± 9.3%, the activity at 50 µM [1] is reported as 24.7 ± 4.9% and the activity at 50 µM [2] is reported as 51.4 ± 6%. For the same compound, the activity at 10 µM [3] was 66.8 ± 7.2%, the activity at 50 µM [3] was 20.1 ± 8% and the inhibition ([4]; 0.003 mg/mL, 0 min) was 0.9 ± 1.9%. The inhibition ([4]; 0.003 mg/mL, 5 min) was 1.2 ± 1.8%, the inhibition ([4]; 0.003 mg/mL, 15 min) was 1.9 ± 1.7% and the inhibition ([4]; 0.003 mg/mL, 30 min) was 2.7 ± 1.7%. For the same compound, the inhibition ([4]; 0.003 mg/mL, 60 min) was 4.1 ± 1.7%, the inhibition ([4]; 0.003 mg/mL, 90 min) was 5.3 ± 1.7% and the inhibition ([4]; 0.003 mg/mL, 120 min) was 6.2 ± 1.6%. The inhibition ([4]; 0.03 mg/mL, 0 min) was 2.6 ± 1.3%, the inhibition ([4]; 0.03 mg/mL, 5 min) was 6.3 ± 1.1% and the inhibition ([4]; 0.03 mg/mL, 15 min) was 10.9 ± 0.9%. It also gave an inhibition ([4]; 0.03 mg/mL, 30 min) of 17.5 ± 0.4%, an inhibition ([4]; 0.03 mg/mL, 60 min) of 28.4 ± 0.4% and an inhibition ([4]; 0.03 mg/mL, 90 min) of 37.1 ± 0.3%. The inhibition ([4]; 0.03 mg/mL, 120 min) was 45.9 ± 0.6%, the melting point was 118 to 119 °C and the activity at 10 µM ([5]; Homo sapiens, HTB-54, 48 h) was 74.2 ± 4%. The activity at 50 µM ([5]; Homo sapiens, HTB-54, 48 h) was 35.3 ± 5.7%.
With `C=CCNC(=[Se])NC(=O)c1cccnc1` [Compound 7.II, N-(allylcarbamoselenoyl)nicotinamide] the activity at 10 µM [1] was 50.6 ± 2.4%, the activity at 50 µM [1] was 8.95 ± 4.9% and the cell growth [6] was “below 55%”. For the same compound, the activity at 10 µM [2] was 110 ± 19.4%, the activity at 50 µM [2] was 19 ± 3.6% and the Increase-fold (DU-145 cells; compound 0.0003 mg/mL, 200 µM H2O2, DU-145) was 2.3 ± 1.2. For the same compound, the Increase-fold (DU-145 cells; compound 0.0003 mg/mL, 250 µM H2O2, DU-145) was 1.6 ± 0.2, the Increase-fold (DU-145 cells; compound 0.0003 mg/mL, 300 µM H2O2, DU-145) was 1.8 ± 0.4 and the Increase-fold (DU-145 cells; compound 0.0015 mg/mL, 200 µM H2O2, DU-145) was 1.5 ± 0.2. For the same compound, the Increase-fold (DU-145 cells; compound 0.0015 mg/mL, 250 µM H2O2, DU-145) was 1.2 ± 0.3, the Increase-fold (DU-145 cells; compound 0.0015 mg/mL, 300 µM H2O2, DU-145) was 1.4 ± 0.3 and the activity at 10 µM [3] was 33.9 ± 6.7%. For the same compound, the activity at 50 µM [3] was 10.5 ± 7%, the IC50 [7] was 6.3 ± 1.5 µM and the inhibition ([4]; 0.003 mg/mL, 0 min) was 3.6 ± 2.3%. The inhibition ([4]; 0.003 mg/mL, 5 min) was 12 ± 2.2%, the inhibition ([4]; 0.003 mg/mL, 15 min) was 16.8 ± 1.3% and the inhibition ([4]; 0.003 mg/mL, 30 min) was 18.9 ± 1.3%. The inhibition ([4]; 0.003 mg/mL, 60 min) was 20.3 ± 1.2%, the inhibition ([4]; 0.003 mg/mL, 90 min) was 20.7 ± 1.3% and the inhibition ([4]; 0.003 mg/mL, 120 min) was 20.7 ± 1.3%. For the same compound, the “time to reach the highest DPPH inhibition” value ([4]; 0.03 mg/mL) was 5 min, the inhibition ([4]; 0.03 mg/mL, 0 min) was 56.3 ± 6.2% and the inhibition ([4]; 0.03 mg/mL, 5 min) was 90 ± 1.3%. For the same compound, the inhibition ([4]; 0.03 mg/mL, 15 min) was 95.7 ± 0.4%, the “DPPH Inhibitory%” value ([4]; acylselenourea analogs, 0.03 mg/mL, 90 min) was 96.2 ± 0.2% and the activity at 10 µM ([5]; Homo sapiens, HTB-54, 48 h) was 21.4 ± 8.2%. The activity at 50 µM ([5]; Homo sapiens, HTB-54, 48 h) was 10.2 ± 5.8%, the IC50 ([5]; Homo sapiens, HTB-54, 48 h, read-out: IC50 HTB-54, Lung, MTT, 48 h) was 12 ± 2.7 µM and the SI ([5]; IC50 (BEAS-2B)/IC50 (HTB-54)) was 0.5.
